In the NIST ThermoML archive (doi:10.1021/je700428f):

Test: xn = mol fraction of the nth substance listed
Details: 101 kPa, Liquid; for viscosity: Capillary tube (Ostwald / Ubbelohde) method

CCCCCCCCC [nonane] + COC(C)(C)C
Details | mass density [kg/m3] | viscosity [mPa·s]
273.15 K, x2 = 0 | 733.184 | 0.972
273.15 K, x2 = 0.1006 | – | 0.912
273.15 K, x2 = 0.1085 | 734.69 | –
273.15 K, x2 = 0.1722 | 735.67 | –
273.15 K, x2 = 0.2026 | – | 0.85
273.15 K, x2 = 0.2995 | – | 0.796
273.15 K, x2 = 0.3037 | 737.89 | –
273.15 K, x2 = 0.4011 | 739.94 | –
273.15 K, x2 = 0.4045 | – | 0.74
273.15 K, x2 = 0.5003 | – | 0.688
273.15 K, x2 = 0.5008 | 742.31 | –
273.15 K, x2 = 0.6005 | 745.08 | –
273.15 K, x2 = 0.6035 | – | 0.632
273.15 K, x2 = 0.6992 | 748.17 | –
273.15 K, x2 = 0.6998 | – | 0.586
273.15 K, x2 = 0.7975 | – | 0.54
273.15 K, x2 = 0.8005 | 751.89 | –
273.15 K, x2 = 0.8925 | 755.81 | –
273.15 K, x2 = 0.8971 | – | 0.491
278.15 K, x2 = 0 | 729.335 | 0.896
278.15 K, x2 = 0.1006 | – | 0.842
278.15 K, x2 = 0.1085 | 730.78 | –
278.15 K, x2 = 0.1722 | 731.71 | –
278.15 K, x2 = 0.2026 | – | 0.787
278.15 K, x2 = 0.2995 | – | 0.738
278.15 K, x2 = 0.3037 | 733.82 | –
278.15 K, x2 = 0.4011 | 735.78 | –
278.15 K, x2 = 0.4045 | – | 0.689
278.15 K, x2 = 0.5003 | – | 0.641
278.15 K, x2 = 0.5008 | 738.04 | –
278.15 K, x2 = 0.6005 | 740.68 | –
278.15 K, x2 = 0.6035 | – | 0.591
278.15 K, x2 = 0.6992 | 743.64 | –
278.15 K, x2 = 0.6998 | – | 0.549
278.15 K, x2 = 0.7975 | – | 0.505
278.15 K, x2 = 0.8005 | 747.2 | –
278.15 K, x2 = 0.8925 | 750.95 | –
278.15 K, x2 = 0.8971 | – | 0.46
283.15 K, x2 = 0 | 725.473 | 0.828
283.15 K, x2 = 0.1006 | – | 0.78
283.15 K, x2 = 0.1085 | 726.84 | –
283.15 K, x2 = 0.1722 | 727.73 | –
283.15 K, x2 = 0.2026 | – | 0.731
283.15 K, x2 = 0.2995 | – | 0.687
283.15 K, x2 = 0.3037 | 729.73 | –
283.15 K, x2 = 0.4011 | 731.59 | –
283.15 K, x2 = 0.4045 | – | 0.643
283.15 K, x2 = 0.5003 | – | 0.598
283.15 K, x2 = 0.5008 | 733.74 | –
283.15 K, x2 = 0.6005 | 736.26 | –
283.15 K, x2 = 0.6035 | – | 0.554
283.15 K, x2 = 0.6992 | 739.08 | –
283.15 K, x2 = 0.6998 | – | 0.514
283.15 K, x2 = 0.7975 | – | 0.474
283.15 K, x2 = 0.8005 | 742.47 | –
283.15 K, x2 = 0.8925 | 746.06 | –
283.15 K, x2 = 0.8971 | – | 0.433
288.15 K, x2 = 0 | 721.603 | 0.768
288.15 K, x2 = 0.1006 | – | 0.726
288.15 K, x2 = 0.1085 | 722.9 | –
288.15 K, x2 = 0.1722 | 723.73 | –
288.15 K, x2 = 0.2026 | – | 0.681
288.15 K, x2 = 0.2995 | – | 0.641
288.15 K, x2 = 0.3037 | 725.62 | –
288.15 K, x2 = 0.4011 | 727.39 | –
288.15 K, x2 = 0.4045 | – | 0.6
288.15 K, x2 = 0.5003 | – | 0.56
288.15 K, x2 = 0.5008 | 729.43 | –
288.15 K, x2 = 0.6005 | 731.81 | –
288.15 K, x2 = 0.6035 | – | 0.52
288.15 K, x2 = 0.6992 | 734.49 | –
288.15 K, x2 = 0.6998 | – | 0.484
288.15 K, x2 = 0.7975 | – | 0.446
288.15 K, x2 = 0.8005 | 737.72 | –
288.15 K, x2 = 0.8925 | 741.13 | –
288.15 K, x2 = 0.8971 | – | 0.407
293.15 K, x2 = 0 | 717.725 | 0.716
293.15 K, x2 = 0.1006 | – | 0.677
293.15 K, x2 = 0.1085 | 718.92 | –
293.15 K, x2 = 0.1722 | 719.72 | –
293.15 K, x2 = 0.2026 | – | 0.637
293.15 K, x2 = 0.2995 | – | 0.601
293.15 K, x2 = 0.3037 | 721.51 | –
293.15 K, x2 = 0.4011 | 723.16 | –
293.15 K, x2 = 0.4045 | – | 0.564
293.15 K, x2 = 0.5003 | – | 0.526
293.15 K, x2 = 0.5008 | 725.09 | –
293.15 K, x2 = 0.6005 | 727.34 | –
293.15 K, x2 = 0.6035 | – | 0.489
293.15 K, x2 = 0.6992 | 729.87 | –
293.15 K, x2 = 0.6998 | – | 0.455
293.15 K, x2 = 0.7975 | – | 0.418
293.15 K, x2 = 0.8005 | 732.94 | –
293.15 K, x2 = 0.8925 | 736.17 | –
293.15 K, x2 = 0.8971 | – | 0.384
298.15 K, x2 = 0 | 713.834 | 0.669
298.15 K, x2 = 0.1006 | – | 0.634
298.15 K, x2 = 0.1085 | 714.95 | –
298.15 K, x2 = 0.1722 | 715.7 | –
298.15 K, x2 = 0.2026 | – | 0.598
298.15 K, x2 = 0.2995 | – | 0.564
298.15 K, x2 = 0.3037 | 717.36 | –
298.15 K, x2 = 0.4011 | 718.92 | –
298.15 K, x2 = 0.4045 | – | 0.529
298.15 K, x2 = 0.5003 | – | 0.496
298.15 K, x2 = 0.5008 | 720.73 | –
298.15 K, x2 = 0.6005 | 722.84 | –
298.15 K, x2 = 0.6035 | – | 0.461
298.15 K, x2 = 0.6992 | 725.22 | –
298.15 K, x2 = 0.6998 | – | 0.43
298.15 K, x2 = 0.7975 | – | 0.396
298.15 K, x2 = 0.8005 | 728.11 | –
298.15 K, x2 = 0.8925 | 731.18 | –
298.15 K, x2 = 0.8971 | – | 0.363
303.15 K, x2 = 0 | 709.929 | 0.628
303.15 K, x2 = 0.1006 | – | 0.596
303.15 K, x2 = 0.1085 | 710.96 | –
303.15 K, x2 = 0.1722 | 711.66 | –
303.15 K, x2 = 0.2026 | – | 0.563
303.15 K, x2 = 0.2995 | – | 0.532
303.15 K, x2 = 0.3037 | 713.21 | –
303.15 K, x2 = 0.4011 | 714.65 | –
303.15 K, x2 = 0.4045 | – | 0.498
303.15 K, x2 = 0.5003 | – | 0.468
303.15 K, x2 = 0.5008 | 716.34 | –
303.15 K, x2 = 0.6005 | 718.32 | –
303.15 K, x2 = 0.6035 | – | 0.436
303.15 K, x2 = 0.6992 | 720.55 | –
303.15 K, x2 = 0.6998 | – | 0.408
303.15 K, x2 = 0.7975 | – | 0.377
303.15 K, x2 = 0.8005 | 723.25 | –
303.15 K, x2 = 0.8925 | 726.13 | –
308.15 K, x2 = 0 | – | 0.59
308.15 K, x2 = 0.1006 | – | 0.56
308.15 K, x2 = 0.2026 | – | 0.531
308.15 K, x2 = 0.2995 | – | 0.502
308.15 K, x2 = 0.4045 | – | 0.47
308.15 K, x2 = 0.5003 | – | 0.443
308.15 K, x2 = 0.6035 | – | 0.413
